According to patent US10966911B2, “Melanin decomposition inhibitor” (KAO CORPORATION, priority 2016, dated 2021):

Experiments:
[1] = system: human skin tissue; assay: Skin color darkening in cultured human skin tissue (appearance observed and photographed); format: cell-based
Procedure: (§1) (1) A normal human skin tissue obtained at the time of a surgical operation was purchased from a Skin Bank of the United States, National Disease Research Interchange (NDRI). The human skin tissue, from which subcutaneous fat was previously removed, was cut into pieces having a size of about 1 cm×about 1 cm by knife and cultured by using a 6-well plate at 37° C. under a 5% CO2 atmosphere. Advanced-DMEM medium containing 10% (v/v) Fetal Bovine Serum (FBS) (Life Technologies, respectively) was used for culture.
(2) The human skin tissue prepared in accordance with the method described in the above (1) was allowed to stand still in the 6-well plate. Then, phenformin was added in the medium so as to have a final concentration of 300 μM and tissue culture was initiated. The medium replacement was performed every 2 to 3 days. Six days or eight days later, the appearance of the skin tissue was observed and photographed.
A human skin tissue prepared in accordance with the method of Example 1 (1) was allowed to stand still in a 6-well plate. Then, phenformin was added in a medium at a final concentration of 100, 200 or 300 μM and tissue culture was initiated. Four days later, the appearance of the skin tissue was observed and photographed.
Skin tissues prepared in accordance with the method of Example 1 (1) were allowed to stand still in 6-well plates. […]

[2] = system: human skin tissue; assay: Fontana-Masson staining of cultured human skin tissue (melanin deposition); format: cell-based
Procedure: as §1, with “culture. (3) Next, the skin tissue cultured was subjected to Fontana-Masson staining to observe deposition of melanin. In the staining, Fontana-Masson Stain Kit manufactured by American […] Scientific, Inc. was used.” for “culture.”

[3] = system: LC3-II and p62 proteins; assay: Autophagy markers LC3-II and p62 in epidermal cells (Western blotting); format: cell-based, human; settings: berberine 10, 30 or 60 μM, 24 hours, FIG. 7
Procedure: As a part of elucidation of the skin color darkening action of berberine, the effect on autophagy in epidermal cells was examined. Berberine was added in a medium for the epidermal cells seeded in a 6-well plate at a final concentration of 10, 30 or 60 μM and the epidermal cells were cultured for 24 hours. Protein was extracted and subjected to Western-blotting analysis to determine the expression levels of LC3-II and p62 proteins serving as markers for autophagy.
As a part of elucidation of skin color darkening action of phenformin and berberine, an effect of phenformin and berberine on melanosome decomposition in, epidermal cells was examined. The epidermal cells were isolated from a foreskin tissue obtained from a Skin Bank of the United States, National Disease Research Interchange (NDRI) in accordance with a predetermined method, and cultured. Melanosomes were prepared from MNT-1 cell strain in accordance with a predetermined method (Murase et al. (2013), J Invest Dermatol, 133: 2416-2424). A predetermined amount of melanosomes was added to epidermal cells and the cells were cultured for 24 hours. Melanosome prepared from MNT-1 cell strain cultured in an area of 35 cm^2 was added per well of the 6-well plate. […]

[4] = system: Pmel17; assay: Melanosome decomposition in epidermal cells that incorporated MNT-1 melanosomes (Pmel17 Western blotting); format: cell-based, human; settings: 24 hours, FIG. 8
Procedure: As a part of elucidation of skin color darkening action of phenformin and berberine, an effect of phenformin and berberine on melanosome decomposition in, epidermal cells was examined. The epidermal cells were isolated from a foreskin tissue obtained from a Skin Bank of the United States, National Disease Research Interchange (NDRI) in accordance with a predetermined method, and cultured. Melanosomes were prepared from MNT-1 cell strain in accordance with a predetermined method (Murase et al. (2013), J Invest Dermatol, 133: 2416-2424). A predetermined amount of melanosomes was added to epidermal cells and the cells were cultured for 24 hours. Melanosome prepared from MNT-1 cell strain cultured in an area of 35 cm^2 was added per well of the 6-well plate. After the cells were washed with PBS, the epidermal cells which had incorporated melanosome therein were added with phenformin at a final concentration of 100 or 200 μM, berberine at a final concentration of 10, 30 or 60 μM and a Goldenseal extract rich in berberine at a final concentration 0.2 or 0.5% (v/v), and the cells were cultured for a further 24 hours. Protein was extracted and subjected to Western-blotting analysis to determine the expression level of Pmel17, a major protein constituting melanosome.

[5] = system: AMPK; settings: Non-Patent Literature 2; cited from earlier work
[6] = system: Pmel17 protein; assay: Western blotting of Pmel17 protein in cultured human skin tissue; format: cell-based; settings: cultured 6 days with or without phenformin, FIG. 3A
Procedure: as §1
The skin tissue prepared in accordance with the method of Example 1 (1) was allowed to stand still in a 6-well plate and cultured in the presence or absence of phenformin for 6 days. Protein was extracted from the skin tissue and used for quantitative analysis of Pmel17 protein, which is a major protein constituting a melanosome, by Western-blotting. Using a mouse anti-human Pmel17 antibody (DAKO) as a primary antibody and a goat anti-mouse IgG antibody as a secondary antibody, signals were detected by using ECL prime reagent (GE Healthcare) and ODYSSEY Fc Imaging System (LICOR). Beta-actin protein as an internal standard was detected in the same manner.

[7] = system: LC3-II and p62 proteins; assay: Western blotting of autophagy markers LC3-II and p62 in cultured human skin tissue; format: cell-based; settings: 4 days, phenformin at different concentrations, FIG. 3B
Procedure: as §1
Further, the skin tissue prepared in accordance with the method of Example 1 (1) was allowed to stand still in a 6-well plate and cultured in the absence or presence of phenformin at a different concentration for 4 days. Proteins were extracted from the skin tissues and subjected to Western-blotting analysis. In this manner, the expression levels of LC3-II and p62 proteins, which are localized in autophagosome membrane and finally decomposed by autophagy, were determined. A mouse anti-human LC3 antibody (Cosmo Bio) and rabbit anti-human p62 antibody (MBL International) were used as primary antibodies.

[8] = system: human hair follicle; assay: Hair color darkening in cultured human hair follicle (Fontana-Masson staining); format: cell-based; settings: phenformin 200 μM, Day 5, FIG. 10
[9] = system: LC3-II and p62 proteins; assay: Autophagy markers LC3-II and p62 in cultured human hair follicle (Western blotting); format: cell-based; settings: phenformin 200 μM, FIG. 11
Procedure: A human hair follicle was surgically isolated from a normal human scalp tissue ([…]), which was obtained at the time of surgical operation, and given by a USA dermatologist. The isolated human hair follicle was cultured at 37° C. under a 5% CO2 atmosphere in William E medium supplemented with 20 μg/mL insulin (Sigma-Aldrich), 40 ng/mL hydrocortisone (Sigma-Aldrich), 2 mM L-glutamine (Life Technologies) and a 1% (v/v) penicillin/streptomycin solution (Life Technologies) (all were final concentrations). The isolated human hair follicle was allowed to stand still in a 24-well plate and phenformin was added at a final concentration of 200 μM in the medium. Tissue culture was initiated. Medium replacement was performed Day 1 and Day 3 after the initiation of culture. Follicular tissue at Day 5 after the initiation of culture was embedded in OCT compound (TissueTek) and frozen. These follicular tissues were subjected to Fontana-Masson staining and deposition of melanin was observed.
From the human hair follicle cultured in accordance with the method of Example 8, protein was extracted and subjected to Western-blotting analysis. In this manner, expression levels of autophagy markers, i.e., LC3-II and p62 proteins, were analyzed.

[10] = system: AMPK (AMP-activated protein kinase); settings: human embryonic kidney cells (HEK 293 T cells); Non-Patent Literature 1; cited from earlier work
[11] = system: LC3-II; assay: Autophagy activity of epidermal keratinocytes (LC3-II accumulation with chloroquine diphosphate, Western blotting); format: cell-based, human; settings: chloroquine diphosphate 10 μM, 24 hours, FIG. 18
Procedure: Normal human neonatal foreskin-derived epidermal keratinocytes (Human Epidermal Keratinocytes, neonatal (HEKn) lightly; keratinocytes) were purchased from Thermo Fisher Scientific. […] The keratinocytes were cultured in a grow medium (Epilife) epidermal keratinocytes (Thermo Fisher Scientific) supplemented with a growth additive (Humedia-KG) (manufactured by Kurabo Industries Ltd.) at 37° C. in 5 vol % CO2 atmospheric conditions.
Keratinocytes were seeded in a 6-well plate at a density of 1.5×10^5 cells/well (2 mL/well). The following day, proguanil was added so as to obtain a final concentration of 0.3, 1, 3, 10 or 30 μM. Culture was performed at 37° C. in 5 vol % CO2 atmospheric conditions. As a control, the same amount of DMSO was added. […] The following day, Chloroquine diphosphate attached to LC3B Antibody Kit for Autophagy (Thermo Fisher Scientific) was added so as to obtain a final concentration of 10 μM. Culture was performed at 37° C. in 5 vol % CO2 atmospheric conditions for 24 hours. After completion of the culture, SDS-PAGE and western blotting were performed in accordance with the method as mentioned above. As a primary antibody, anti-LC3B (1:1000) attached to the kit mentioned above was used. […] Expression of β-actin as the internal standard was evaluated by using monoclonal antibody specific for β-actin (Sigma-Aldrich, 1:5000).

Question: Which “darkening of skin color” value ([1]; berberine 10 or 30 μM (Caucasian) and 30 or 100 μM (African American), six or four days, FIGS. 5 and 6) does the source give for COc1ccc2cc3[n+](cc2c1OC)CCc1cc2c(cc1-3)OCO2 [berberine, Berberine] here?
Answer: darkening of skin color was induced in a berberine dose-dependent manner

Question: What about the “deposition of melanin on the epidermal layer (tissue staining)” value ([2]; berberine 10 or 30 μM and 30 or 100 μM, FIGS. 5 and 6) of the same compound?
Answer: Deposition of melanin on the epidermal layer was confirmed

Question: And the “expression level of LC3-II protein” value [3]?
Answer: LC3-II and p62 proteins are accumulated in a berberine dose-dependent manner

Question: And the “expression level of p62 protein” value [3]?
Answer: LC3-II and p62 proteins are accumulated in a berberine dose-dependent manner

Question: And the “expression level of Pmel17” value ([4]; berberine 10, 30 or 60 μM)?
Answer: accumulation of Pmel17 protein in a dose-dependent manner was observed

Question: And the AMPK activation action [5]?
Answer: has an AMPK activation action

Question: With N=C(N)NC(=N)NCCc1ccccc1 [phenformin, Phenformin] as the compound, how does the “skin color darkening (dose dependent)” value ([1]; phenformin 100, 200 or 300 μM, 4 days, FIG. 4) read?
Answer: Recognizable darkening was observed in a dose-dependent manner

Question: What about the “accumulation of melanin in the epidermis” value ([2]; phenformin 300 μM, skin tissue, FIGS. 2A, 2B) of the same compound?
Answer: significant accumulation of melanin in the epidermis was observed

Question: What about the melanin deposition ([2]; phenformin 100, 200 or 300 μM, 4 days, data not shown) of the same compound?
Answer: melanin deposition, which is correlated with a change in skin color, was confirmed

Question: What about the “amount of Pmel17 protein” value [6] of the same compound?
Answer: amount of Pmel17 protein is increased

Question: And the “expression level of LC3-II protein” value [7]?
Answer: accumulation on both markers was observed

Question: And the “expression level of p62 protein” value [7]?
Answer: accumulation on both markers was observed

Question: What about the “expression level of Pmel17” value ([4]; phenformin 100 or 200 μM) of the same compound?
Answer: accumulation of Pmel17 protein in a dose-dependent manner was observed

Question: What about the hair color darkening [8] of the same compound?
Answer: Apparent hair color darkening was induced

Question: And the “expression level of LC3-II protein” value [9]?
Answer: Accumulation of LC3-II and p62 proteins by addition of phenformin was observed

Question: And the “expression level of p62 protein” value [9]?
Answer: Accumulation of LC3-II and p62 proteins by addition of phenformin was observed

Question: And the autophagy [10]?
Answer: activates autophagy through activation of AMPK

Question: With CCN(CC)CCCC(C)Nc1ccnc2cc(Cl)ccc12 (stereo not drawn) [Chloroquine diphosphate] as the compound, how does the “accumulation of LC3-II” value [11] read?
Answer: Accumulation of LC3-II was induced
